Assays:
Salmonella typhimurium [1] = test: Antimutagenic activity in Salmonella Typhimurium T-98 assessed as inhibition of 2-aminoanthracene-induced mutation at 150 ug/plate; assay type: functional, Salmonella enterica subsp. enterica serovar Typhimurium
Salmonella typhimurium [2] = test: Antimutagenic activity in Salmonella Typhimurium T-98 assessed as inhibition of 2-aminoanthracene-induced mutation at 300 ug/plate; assay type: functional, Salmonella enterica subsp. enterica serovar Typhimurium
Salmonella typhimurium [3] = test: Antimutagenic activity in Salmonella Typhimurium T-98 assessed as inhibition of 2-aminoanthracene-induced mutation at 75 ug/plate; assay type: functional, Salmonella enterica subsp. enterica serovar Typhimurium
Salmonella typhimurium [4] = test: Antimutagenic activity in Salmonella Typhimurium T-98 assessed as inhibition of 2-aminoanthracene-induced mutation at 37.5 ug/plate; assay type: functional, Salmonella enterica subsp. enterica serovar Typhimurium
Salmonella typhimurium [5] = test: Antimutagenic activity in Salmonella Typhimurium T-98 assessed as inhibition of acetylaminofluorene-induced mutation at 300 ug/plate; assay type: functional, Salmonella enterica subsp. enterica serovar Typhimurium
Salmonella typhimurium [6] = test: Antimutagenic activity in Salmonella Typhimurium T-98 assessed as inhibition of acetylaminofluorene-induced mutation at 150 ug/plate; assay type: functional, Salmonella enterica subsp. enterica serovar Typhimurium
Salmonella typhimurium [7] = test: Antimutagenic activity in Salmonella Typhimurium T-98 assessed as inhibition of acetylaminofluorene-induced mutation at 75 ug/plate; assay type: functional, Salmonella enterica subsp. enterica serovar Typhimurium
Salmonella typhimurium [8] = test: Antimutagenic activity in Salmonella Typhimurium T-98 assessed as inhibition of acetylaminofluorene-induced mutation at 37.5 ug/plate; assay type: functional, Salmonella enterica subsp. enterica serovar Typhimurium
Salmonella typhimurium [9] = test: Antimutagenic activity in Salmonella Typhimurium T-100 assessed as inhibition of ethyl methanesulfonate-induced mutation at 300 ug/plate; assay type: functional, Salmonella enterica subsp. enterica serovar Typhimurium
Salmonella typhimurium [10] = test: Antimutagenic activity in Salmonella Typhimurium T-100 assessed as inhibition of ethyl methanesulfonate-induced mutation at 150 ug/plate; assay type: functional, Salmonella enterica subsp. enterica serovar Typhimurium
Salmonella typhimurium [11] = test: Antimutagenic activity in Salmonella Typhimurium T-100 assessed as inhibition of ethyl methanesulfonate-induced mutation at 75 ug/plate; assay type: functional, Salmonella enterica subsp. enterica serovar Typhimurium
Salmonella typhimurium [12] = test: Antimutagenic activity in Salmonella Typhimurium T-100 assessed as inhibition of ethyl methanesulfonate-induced mutation at 37.5 ug/plate; assay type: functional, Salmonella enterica subsp. enterica serovar Typhimurium
Salmonella typhimurium [13] = test: Toxicity to Salmonella Typhimurium at 0.3 mg/plate; assay type: organism-based, Salmonella enterica subsp. enterica serovar Typhimurium; conditions: in vivo
Salmonella typhimurium [14] = test: Toxicity to Salmonella Typhimurium at 0.6 mg/plate; assay type: organism-based, Salmonella enterica subsp. enterica serovar Typhimurium; conditions: in vivo

| Structure (SMILES) | inhibition (INH) (Salmonella typhimurium [1]) | inhibition (INH) (Salmonella typhimurium [2]) | inhibition (INH) (Salmonella typhimurium [3]) | inhibition (INH) (Salmonella typhimurium [4]) | inhibition (INH) (Salmonella typhimurium [5]) | inhibition (INH) (Salmonella typhimurium [6]) | inhibition (INH) (Salmonella typhimurium [7]) | inhibition (INH) (Salmonella typhimurium [8]) | inhibition (INH) (Salmonella typhimurium [9]) | inhibition (INH) (Salmonella typhimurium [10]) | inhibition (INH) (Salmonella typhimurium [11]) | inhibition (INH) (Salmonella typhimurium [12]) | Activity (Salmonella typhimurium [13]) | Activity (Salmonella typhimurium [14]) |
| --- | --- | --- | --- | --- | --- | --- | --- | --- | --- | --- | --- | --- | --- | --- |
| COc1ccc(/C=C2\COc3c(ccc(O)c3O)C2=O)cc1 [INTRICATINOL] | 57% | 87% | 36% | 8% | 70% | 54% | 48% | 26% | 74% | 82% | 74% | 30% | Non-toxic | Non-toxic |
| COc1ccc(/C=C2\COc3c(ccc(OC)c3O)C2=O)cc1 [INTRICATIN] | 84% | 62% | 92% | 70% | 7% | 0% | 0% | 8% | 45% | 27% | 4% | 9% | Non-toxic | Non-toxic |
